According to patent US20120196899A1, “METHODS AND PRODUCTS FOR TREATING INFLAMMATION” (Rock Creek Pharmaceuticals, Inc., priority 2010, published 2012):
Where “and” joins values, the source holds several entries; their conditions need not be identical. Equal entries are not always repeated. Entries after “also recorded” stand apart in the source; their conditions may differ. Where two headings read alike, the source gives them in different places.

Tests used:
nAChR α3/β4 [1] = molecular target: T1, nAChR α3/β4 (Homo sapiens, UniProt P30926+P32297); assay: nAChR α3/β4 channel agonist assay (FLIPR, Fluo-8 calcium); conditions: 30 μM Ach = 100%, HBPS = 0%
Description: (§2) The following three (3) channels were evaluated: • 1. nAChR α3/β4 (encoded by the human CHRNA3 and CHRNB4 gene and stably expressed in CHO cells); • 2. nAChR α4/β2 (CHRNA4 and CHRNB2 gene and transiently expressed in HEK293 cells); and • 3. nAChR α7 (encoded by the human nicotinic α7 gene coexpressed in CHO cells with the chaperone RIC-3 encoded by the human RIC3 gene).
(§3) The ability of each test article to act as an agonist, a positive allosteric modulator or antagonist of three nAChR receptor channels was evaluated in the presence of 0.1 atropine. Both test articles were evaluated for responses on each nAChR channel at eight (8) concentrations: 0.3, 1, 3, 10, 30, 100, 300, and 1000 μM (n=4 for each concentration).
(§4) HEK293 or CHO cells were transiently or stably transfected with the appropriate human ion channel cDNAs. Stable transfectants were selected by coexpression with the antibiotic-resistance gene(s) incorporated into the expression plasmid(s). Selection pressure was maintained by including selection antibiotics in the culture medium. HEK293 cells were cultured in Dulbecco's Modified Eagle Medium/Nutrient Mixture F-12 (D-MEM/F-12) supplemented with 10% fetal bovine serum, 100 U/mL penicillin G sodium, 100 g/mL streptomycin sulfate and appropriate selection antibiotics. CHO cells were cultured in Ham's F-12 supplemented with 10% fetal bovine serum, 100 U/mL penicillin G sodium, 100 g/mL streptomycin sulfate and appropriate selection antibiotics.
(§5) For FLIPR TETRA™ assay, cells were plated in 384-well black wall, flat clear bottom microtiter plates (Type: BD Biocoat Poly-D-Lysine Multiwell Cell Culture Plate) at 20,000 to 30,000 cells per well (384-well plate). Cells were incubated at 37° C. overnight or until the cells reached a sufficient density in the wells (near confluent monolayer) to use in fluorescence assays. For α4β2 assay, cells were incubated at 27° C. for at least 7 hours before use.
(§6) Experiments were performed with either the FLIPR calcium sensitive dye kit (Fluo-8, ABDbioquest, for nAChR α3/β4 and nAChR α7) or FLIPR membrane potential kit (Molecular Devices, for nAChR α4/β2) according to the manufacturer's instructions. Briefly, cells were incubated with 201 dye for 30 min at 37° C. After dye loading period, for the agonist assay, 5 μl of the test, vehicle, or control articles at concentration of 5 times of final concentration were applied to the cells without stimulation. For the positive allosteric modulation (PAM) and antagonist assay, after test article application, the cells were stimulated with either low dose (for PAM) or high dose (for antagonist) of Ach.
(§7) Concentration-response data was fitted to a Hill equation of the following form:
(§8) where Base is the response at low concentrations of test article, Max is the maximum response at high concentrations, xhalf is the EC50 or IC50, the concentration of test article producing either half-maximal activation or inhibition, and rate is the Hill coefficient. Nonlinear least squares fits were made assuming a simple one-to-one binding model.
The ability of both test articles to act as an agonist of nAChR carried out in the absence of the positive control agonist. The signal elicited in the presence of the positive control agonist, 30 μM acetylcholine (Ach) was set to 100% and the signal from the vehicle control, HEPES-buffered physiological saline (HBPS) solution was set to 0%.

nAChR α4/β2 [2] = molecular target: T2, nAChR α4/β2 (Homo sapiens, UniProt P17787+P43681); assay: nAChR α4/β2 channel agonist assay (FLIPR membrane potential); assay type: cell-based; conditions: 30 μM Ach = 100%, HBPS = 0%
T2 construct: host or cells: HEK293 cells, transient transfection
Description: as §2, §3, §4, §5, §6, §7, §8
The ability of each test article to act as an agonist of the nAChR carried out in the absence of the positive control agonist. The signal elicited in the presence of the positive control agonist (30 μM Ach) was set to 100% and the signal from the vehicle control (HBPS) was set to 0%. Values were considered significant (bold font) if the test article mean was three or more standard deviations above from the vehicle control mean.

nAChR α7 = molecular target: T3, nAChR α7 (Homo sapiens, UniProt P36544); assay: nAChR α7 channel agonist assay (FLIPR, with PNU-120596); assay type: cell-based; conditions: for Normalized % Activation: in presence of PNU-120596, 30 μM Ach + 10 μM PNU-120596 = 100%, HBPS = 0%
T3 construct: host or cells: CHO cells
Description: Therefore, the assay of agonist activity for either Ach or for the test articles was conducted in the presence of the positive allosteric modulator.

nAChR α3/β4 [3] = molecular target: T1, nAChR α3/β4; conditions: for Normalized % Potentiation: with 10 μM Ach (= 0%), 10 μM Ach + 1 μM epibatidine = 100%
Description: as §4, §5, §6
The signal elicited in the presence of the positive control agonist and allosteric modulator (10 μM Ach+1 μM epibatidine) was set to 100% and the signal from the agonist control (10 μM Ach) was set to 0%.

nAChR α4/β2 [4] = molecular target: T2, nAChR α4/β2; assay type: cell-based; conditions: 100 μM Ach + 0.3 μM epibatidine; not concentration-dependent, IC50 not determinable
Description: as §2, §3
HEK293 or CHO cells were transiently or stably transfected with the appropriate human ion channel cDNAs. Stable transfectants were selected by coexpression with the antibiotic-resistance gene(s) incorporated into the expression plasmid(s). […]
For FLIPR TETRA™ assay, cells were plated in 384-well black wall, flat clear bottom microtiter plates (Type: BD Biocoat Poly-D-Lysine Multiwell Cell Culture Plate) at 20,000 to 30,000 cells per well (384-well plate). Cells were incubated at 37° C. overnight or until the cells reached a sufficient density in the wells (near confluent monolayer) to use in fluorescence assays. […]

[5] = Coagulation parameters (aPTT, PT), day 15; assay type: in vivo, Sprague-Dawley rats; conditions: for ACTIVATED PARTIAL THROMBOPLASTIN TIME: 0.75 mg/kg, group mean; for ACTIVE PARTIAL THROMBOPLASTIN TIME: nicotine 0.75 mg/kg, individual animals, tartrate
Description: (§1) On day 15, urine was collected on all surviving animals for urinalysis. The animals were euthanized and bled via cardiac puncture. Blood was collected for hematology, clinical chemistry, and coagulation analysis. Tissues were collected, weighed, and stored in 10% neutral-buffered formalin for possible future analysis.
Individual values for the coagulation parameters activated partial thromboplastin (aPTT) and prothrombin times (PT) for each animal are listed in Table 34 (normal ranges, Table 30). These are summarized in terms of descriptive statistics in Table 25.

[6] = Necropsy observations and organ weights, day 15; assay type: in vivo, Sprague-Dawley rats
Description: Body weight and food consumption was measured daily for 14 days. On day 15, urine was collected on all surviving animals. The animals were euthanized and bled via cardiac puncture, and blood was collected for analysis. Tissues were collected, weighed, evaluated for gross abnormalities, and stored in 10% neutral-buffered formalin.
as §1

Urinalysis, day 15 = assay type: in vivo, Sprague-Dawley rats; conditions: Dose is 0.75 mg/kg nicotine
Description: as §1
There were no notable differences between the active treatment groups and controls and the observations are all consistent with those expected for this species.

[7] = Group E, 0.75 mg/kg, females, individual animals, tartrate, 0.75 mg/kg
[8] = Group E, 0.75 mg/kg, males, individual animals, tartrate, 0.75 mg/kg
[9] = female animals, 0.75 mg/kg, group mean
[10] = nicotine 0.75 mg/kg single i.v., male rats
[11] = individual animals E1-E10 (M and F)
[12] = individual animals E1-E10 (M and F), tartrate, 0.75 mg/kg

T1 sequence (P32297 32-505): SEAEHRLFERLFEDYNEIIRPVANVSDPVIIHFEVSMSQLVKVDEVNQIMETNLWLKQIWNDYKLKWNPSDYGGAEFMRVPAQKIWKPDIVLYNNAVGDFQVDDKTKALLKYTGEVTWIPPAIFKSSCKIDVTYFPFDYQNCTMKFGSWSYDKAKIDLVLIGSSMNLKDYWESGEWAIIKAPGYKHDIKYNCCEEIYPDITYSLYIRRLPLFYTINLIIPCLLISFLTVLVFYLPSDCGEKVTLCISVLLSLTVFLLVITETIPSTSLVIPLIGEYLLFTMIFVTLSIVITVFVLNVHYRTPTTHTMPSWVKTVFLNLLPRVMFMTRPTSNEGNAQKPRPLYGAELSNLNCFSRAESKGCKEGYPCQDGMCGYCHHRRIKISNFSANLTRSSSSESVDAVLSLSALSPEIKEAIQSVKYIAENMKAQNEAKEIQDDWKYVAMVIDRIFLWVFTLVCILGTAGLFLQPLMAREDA
T1 sequence (P30926 22-498): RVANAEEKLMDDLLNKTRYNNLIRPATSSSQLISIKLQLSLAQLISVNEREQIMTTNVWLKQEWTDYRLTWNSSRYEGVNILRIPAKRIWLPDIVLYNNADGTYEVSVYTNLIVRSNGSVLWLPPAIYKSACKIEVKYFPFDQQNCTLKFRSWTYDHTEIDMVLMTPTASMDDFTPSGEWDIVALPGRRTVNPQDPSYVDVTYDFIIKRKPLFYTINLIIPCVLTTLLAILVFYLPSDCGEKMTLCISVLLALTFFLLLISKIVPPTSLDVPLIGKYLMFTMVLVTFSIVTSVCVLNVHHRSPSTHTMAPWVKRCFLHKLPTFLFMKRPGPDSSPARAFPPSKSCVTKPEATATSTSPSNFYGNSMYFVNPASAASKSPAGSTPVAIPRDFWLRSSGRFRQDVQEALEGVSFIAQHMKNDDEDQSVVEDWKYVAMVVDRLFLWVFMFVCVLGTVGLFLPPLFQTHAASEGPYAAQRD
T2 sequence (P17787 26-502): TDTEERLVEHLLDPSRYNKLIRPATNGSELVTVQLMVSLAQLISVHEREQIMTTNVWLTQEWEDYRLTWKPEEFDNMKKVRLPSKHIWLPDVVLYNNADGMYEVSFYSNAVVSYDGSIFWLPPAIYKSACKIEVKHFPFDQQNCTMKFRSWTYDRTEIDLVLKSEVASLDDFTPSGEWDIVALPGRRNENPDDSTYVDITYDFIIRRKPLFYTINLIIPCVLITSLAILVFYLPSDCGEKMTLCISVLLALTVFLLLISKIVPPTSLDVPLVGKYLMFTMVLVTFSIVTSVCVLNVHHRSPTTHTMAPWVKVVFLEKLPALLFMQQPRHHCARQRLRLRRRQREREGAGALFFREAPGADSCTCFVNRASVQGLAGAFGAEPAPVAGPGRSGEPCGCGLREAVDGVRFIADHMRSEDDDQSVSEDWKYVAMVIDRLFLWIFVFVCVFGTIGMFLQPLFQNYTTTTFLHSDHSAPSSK
T2 sequence (P43681 29-627): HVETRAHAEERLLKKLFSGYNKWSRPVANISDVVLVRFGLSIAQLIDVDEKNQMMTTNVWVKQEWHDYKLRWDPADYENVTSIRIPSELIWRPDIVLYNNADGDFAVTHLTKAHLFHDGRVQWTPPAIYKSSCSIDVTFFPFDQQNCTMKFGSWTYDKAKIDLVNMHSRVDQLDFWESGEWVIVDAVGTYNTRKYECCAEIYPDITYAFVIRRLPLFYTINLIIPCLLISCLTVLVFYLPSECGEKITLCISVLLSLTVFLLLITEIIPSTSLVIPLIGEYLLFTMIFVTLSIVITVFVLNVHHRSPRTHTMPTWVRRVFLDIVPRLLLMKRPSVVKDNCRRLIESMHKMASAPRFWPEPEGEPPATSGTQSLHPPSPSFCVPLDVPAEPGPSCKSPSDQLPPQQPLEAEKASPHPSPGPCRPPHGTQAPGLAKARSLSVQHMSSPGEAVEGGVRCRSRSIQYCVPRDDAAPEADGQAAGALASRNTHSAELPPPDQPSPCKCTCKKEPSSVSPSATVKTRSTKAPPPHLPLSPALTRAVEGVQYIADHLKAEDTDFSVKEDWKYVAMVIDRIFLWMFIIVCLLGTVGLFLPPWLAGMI
T3 sequence (P36544 23-502): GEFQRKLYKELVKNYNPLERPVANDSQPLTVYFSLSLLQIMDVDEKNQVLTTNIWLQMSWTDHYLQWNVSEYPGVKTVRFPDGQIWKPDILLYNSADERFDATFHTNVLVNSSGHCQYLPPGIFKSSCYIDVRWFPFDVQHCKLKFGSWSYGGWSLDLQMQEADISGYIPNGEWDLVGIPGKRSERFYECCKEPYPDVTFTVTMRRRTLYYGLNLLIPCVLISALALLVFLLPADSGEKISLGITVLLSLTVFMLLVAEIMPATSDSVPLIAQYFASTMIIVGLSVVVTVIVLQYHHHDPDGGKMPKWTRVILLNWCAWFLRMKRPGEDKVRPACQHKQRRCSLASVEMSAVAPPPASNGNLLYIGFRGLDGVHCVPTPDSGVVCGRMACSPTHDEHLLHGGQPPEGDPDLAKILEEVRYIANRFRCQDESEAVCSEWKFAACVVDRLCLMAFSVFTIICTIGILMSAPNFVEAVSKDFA

C1=CCC(c2cccnc2)NC1 (racemic) [Anatabine (racemate)]
Normalized % Activation (nAChR α3/β4 [1]; test conc 0.3 μM): 1.32%
Normalized % Activation (nAChR α3/β4 [1]; test conc 1 μM): −0.01%
Normalized % Activation (nAChR α3/β4 [1]; test conc 3 μM): −1.53%
Normalized % Activation (nAChR α3/β4 [1]; test conc 10 μM): −2.73%
Normalized % Activation (nAChR α3/β4 [1]; test conc 30 μM): 4.93%
Normalized % Activation (nAChR α3/β4 [1]; test conc 100 μM): 10.44%
Normalized % Activation (nAChR α3/β4 [1]; test conc 300 μM): 16.97%
Normalized % Activation (nAChR α4/β2 [2]; test conc 0.3 μM): 0.28%
Normalized % Activation (nAChR α4/β2 [2]; test conc 1 μM): 5.36%
Normalized % Activation (nAChR α4/β2 [2]; test conc 3 μM): 10.41%
Normalized % Activation (nAChR α4/β2 [2]; test conc 10 μM): 12.65%
Normalized % Activation (nAChR α4/β2 [2]; test conc 30 μM): 9.07%
Normalized % Activation (nAChR α4/β2 [2]; test conc 100 μM): 16.96%
Normalized % Activation (nAChR α4/β2 [2]; test conc 300 μM): 50.60%
Normalized % Activation (nAChR α4/β2 [2]; test conc 1000 μM): 85.29%
Normalized % Activation (nAChR α7; test conc 0.3 μM): −1.81%
Normalized % Activation (nAChR α7; test conc 1 μM): 0.34%
Normalized % Activation (nAChR α7; test conc 3 μM): 0.78%
Normalized % Activation (nAChR α7; test conc 10 μM): 1.65%
Normalized % Activation (nAChR α7; test conc 30 μM): 2.27%
Normalized % Activation (nAChR α7; test conc 100 μM): 5.69%
Normalized % Activation (nAChR α7; test conc 300 μM): 14.45%
Normalized % Activation (nAChR α7; test conc 1000 μM): 60.41%
Normalized % Potentiation (nAChR α3/β4 [3]; test conc 0.3 μM): −1.98%
Normalized % Potentiation (nAChR α3/β4 [3]; test conc 1 μM): −4.08%
Normalized % Potentiation (nAChR α3/β4 [3]; test conc 3 μM): −2.88%
Normalized % Potentiation (nAChR α3/β4 [3]; test conc 10 μM): −3.20%
Normalized % Potentiation (nAChR α3/β4 [3]; test conc 30 μM): −8.50%
Normalized % Potentiation (nAChR α3/β4 [3]; test conc 100 μM): −9.46%
Normalized % Potentiation (nAChR α3/β4 [3]; test conc 300 μM): −9.38%
Normalized % Potentiation (nAChR α3/β4 [3]; test conc 1000 μM): −9.17%

CN1CCCC1c1cccnc1.O=C(O)C(O)C(O)C(=O)O (single isomer, unassigned; (-)) [Nicotine, (−) Nicotine hydrogen tartrate, reference compound]
inhibition of receptor activity (nAChR α4/β2 [4]): inhibited receptor activity
ACTIVATED PARTIAL THROMBOPLASTIN TIME ([5]; female): 16.9 s
ACTIVATED PARTIAL THROMBOPLASTIN TIME ([5]; male): 16.3 s
aPTT versus vehicle control ([5]; nicotine 0.75 mg/kg single i.v., male and female, day 15): aPTT was significantly lower relative to the vehicle control group
ACTIVE PARTIAL THROMBOPLASTIN TIME ([5]; female rats): 18.7 s and 15 s
ACTIVE PARTIAL THROMBOPLASTIN TIME ([5]; male rats): 15 s and 16.3 s and 17.6 s and 16.2 s
agonist activity (nAChR α7; with 10 μM PNU-120596, maximal stimulation not achieved): showed agonist activity
potentiation (nAChR α3/β4 [3]): Neither nicotine nor anatabine potentiated the activity
Tissue Collection Weights: Brain [6, 7]: 1.77 g and 1.93 g and 1.87 g
Tissue Collection Weights: Heart [6, 7]: 1.09 g and 1.06 g and 0.83 g
Tissue Collection Weights: Kidneys [6, 7]: 2.34 g and 2.29 g (2×)
Tissue Collection Weights: Liver [6, 7]: 9.48 g and 10.11 g and 9.18 g
Tissue Collection Weights: Lungs [6, 7]: 1.20 g and 1.48 g and 1.28 g
Tissue Collection Weights: Ovaries/uterus [6, 7]: 1.59 g and 0.92 g and 1.32 g
Tissue Collection Weights: Small intestine [6, 7]: 0.41 g and 0.40 g and 0.28 g
Tissue Collection Weights: Spleen [6, 7]: 0.46 g (2×) and 0.76 g
Tissue Collection Weights: Thymus [6, 7]: 0.54 g and 0.48 g (2×)
Tissue Collection Weights: Brain [6, 8]: 2.06 g and 1.90 g and 1.84 g and 1.94 g
Tissue Collection Weights: Heart [6, 8]: 1.20 g and 1.17 g and 1.21 g and 1.42 g
Tissue Collection Weights: Kidneys [6, 8]: 3.19 g and 3.04 g and 2.87 g and 3.01 g
Tissue Collection Weights: Liver [6, 8]: 11.97 g and 12.52 g and 12.06 g
Tissue Collection Weights: Lungs [6, 8]: 1.84 g and 1.49 g and 1.62 g and 1.66 g
Tissue Collection Weights: Prostate [6, 8]: 0.41 g and 0.28 g (2×) and 0.45 g
Tissue Collection Weights: Small intestine [6, 8]: 0.71 g and 0.56 g and 0.53 g and 0.40 g
Tissue Collection Weights: Spleen [6, 8]: 0.81 g and 0.62 g and 0.78 g and 0.86 g
Tissue Collection Weights: Testes [6, 8]: 3.05 g and 3.13 g and 3.02 g and 2.92 g
Tissue Collection Weights: Thymus [6, 8]: 0.54 g and 0.46 g and 0.56 g and 0.76 g
Organ Weight Brain [6, 9]: 1.86 g
Organ Weight Heart [6, 9]: 0.99 g
Organ Weight Kidneys [6, 9]: 2.31 g
Organ Weight Liver [6, 9]: 9.59 g
Organ Weight Lungs [6, 9]: 1.32 g
Organ Weight Ovaries/uterus [6, 9]: 1.28 g
Organ Weight Small intestine [6, 9]: 0.36 g
Organ Weight Spleen [6, 9]: 0.56 g
Organ Weight Thymus [6, 9]: 0.50 g
Organ Weight Brain, Mean [6, 10]: 1.94 g
Organ Weight Heart, Mean [6, 10]: 1.25 g
Organ Weight Kidneys, Mean [6, 10]: 3.03 g
Organ Weight Liver, Mean [6, 10]: 12.69 g
Organ Weight Lungs, Mean [6, 10]: 1.65 g
Organ Weight Prostate, Mean [6, 10]: 0.36 g
Organ Weight Small intestine, Mean [6, 10]: 0.55 g
Organ Weight Spleen, Mean [6, 10]: 0.77 g
Organ Weight Testes, Mean [6, 10]: 3.03 g
Organ Weight Thymus, Mean [6, 10]: 0.58 g
Urinalysis VOLUME (Urinalysis, day 15; animal E6 (F)): 10 UL
Urinalysis CLARITY (Urinalysis, day 15; [11]): HAZY
Urinalysis COLOR (Urinalysis, day 15; [11]): YELLOW
Urinalysis GLUCOSE (Urinalysis, day 15; [11]): NEGATIVE
Urinalysis KETONES (Urinalysis, day 15; [11]): NEGATIVE
Urinalysis UROBILINOGEN (Urinalysis, day 15; [11]): NORMAL
Urinalysis VOLUME (Urinalysis, day 15; [11]): <0.5 mL
Urinalysis PROTEIN (Urinalysis, day 15; [12]): NEGATIVE; also recorded: TRACE
Urinalysis SPEC GRAVITY (Urinalysis, day 15; [12]): 1.054 and 1.058 and 1.046 and 1.047 and 1.052
Urinalysis pH (Urinalysis, day 15; [12]): 6 and 6.5 (2×) and 7 and 7.5
